Data taken from patent publication US20250066376A1, “OPIOID RECEPTOR ANTAGONIST PRODRUGS” (Nirsum Laboratories, Inc., priority 2024, published 2025).

Assay: Solubility of naloxone and naltrexone prodrug compounds
Format: physicochemical
Conditions: for Solubility in water: lower limit of aqueous solubility; for Solubility in cottonseed oil / Solubility in miglyol 812N / Solubility in sesame oil: solubility study in oil excipients at 50 mg/ml (base equivalents)
Description: Example 12: Solubility of Naloxone and Naltrexone Prodrug Compounds
Table 12 and Table 13 report the solubility data for the naloxone and naltrexone prodrug compounds, respectively.

Row | SMILES | Solubility in water | Solubility in cottonseed oil (naloxone prodrugs (Table 12)) | Solubility in miglyol 812N (naloxone prodrugs (Table 12)) | Solubility in sesame oil (naloxone prodrugs (Table 12)) | Solubility in cottonseed oil (naltrexone prodrugs (Table 13)) | Solubility in miglyol 812N (naltrexone prodrugs (Table 13)) | Solubility in sesame oil (naltrexone prodrugs (Table 13))
1 | C=CCN1CC[C@]23c4c5ccc(OCOC(=O)CCCCC)c4O[C@H]2C(=O)CC[C@@]3(O)[C@H]1C5 [III-1, [(3R,4aS,7aR,12bS)-3-allyl-4a-hydroxy-7-oxo-2,4,5,6,7a,13-hexahydro-1H-4,12-methanobenzofuro[3,2-e]isoquinoline-9-yl]oxymethyl hexanoate] | Solubility in water: <0.001 mg/mL | In cottonseed oil: >50.03 mg/ml | In miglyol 812N: <50.53 mg/ml | In sesame oil: >50.01 mg/ml | – | – | –
2 | C=CCN1CC[C@]23c4c5ccc(OCOC(=O)CCCCC)c4O[C@H]2C(=O)CC[C@@]3(O)[C@H]1C5 [III-2, [(3R,4aS,7aR,12bS)-3-allyl-4a-hydroxy-7-oxo-2,4,5,6,7a,13-hexahydro-1H-4,12-methanobenzofuro[3,2-e]isoquinoline-9-yl]oxymethyl hexanoate] | Solubility in water: <0.001 mg/mL | In cottonseed oil: >50.48 mg/ml | In miglyol 812N: <50.28 mg/ml | In sesame oil: <50.44 mg/ml | – | – | –
3 | CCCCOC(=O)OCOc1ccc2c3c1O[C@H]1C(=O)CC[C@@]4(O)[C@@H](C2)N(CC2CC2)CC[C@]314 [IV-4, [(3R,4aS,7aR,12bS)-3-(cyclopropylmethyl)-4a-hydroxy-7-oxo-2,4,5,6,7a,13-hexahydro-1H-4,12-methanobenzofuro[3,2-e]isoquinoline-9-yl]oxymethyl butyl carbonate] | Solubility in water: <0.001 mg/mL | – | – | – | In cottonseed oil: <50.12 mg/mL | In miglyol 812N: <50.41 mg/mL | In sesame oil: <50.07 mg/mL
4 | CCCCCCOC(=O)OCOc1ccc2c3c1O[C@H]1C(=O)CC[C@@]4(O)[C@@H](C2)N(CC2CC2)CC[C@]314 [IV-5, [(3R,4aS,7aR,12bS)-3-(cyclopropylmethyl)-4a-hydroxy-7-oxo-2,4,5,6,7a,13-hexahydro-1H-4,12-methanobenzofuro[3,2-e]isoquinoline-9-yl]oxymethyl hexyl carbonate] | Solubility in water: <0.001 mg/mL | – | – | – | In cottonseed oil: <50.19 mg/mL | In miglyol 812N: <50.24 mg/mL | In sesame oil: >50.31 mg/mL
5 | CCCCCCCCOC(=O)OCOc1ccc2c3c1O[C@H]1C(=O)CC[C@@]4(O)[C@@H](C2)N(CC2CC2)CC[C@]314 [IV-6, [(3R,4aS,7aR,12bS)-3-(cyclopropylmethyl)-4a-hydroxy-7-oxo-2,4,5,6,7a,13-hexahydro-1H-4,12-methanobenzofuro[3,2-e]isoquinoline-9-yl]oxymethyl octyl carbonate] | Solubility in water: <0.001 mg/mL | – | – | – | In cottonseed oil: >50.28 mg/mL | In miglyol 812N: >50.11 mg/mL | In sesame oil: >50.43 mg/mL
